Assays:
[1] = Model tooth surface binding experiment (menthol-PPi/hydroxyapatite binding by 1H NMR); conditions: for speed of binding to HA (time to maximum binding): HA powder, vortex agitation, diphosphate
Protocol: Menthol-PPi (80 mg) was dissolved in deuterium oxide (D2O, 16.1159 g). Two drops (34.7 mg) of acetone was added as an internal reference when using NMR spectroscopy. Four time intervals were chosen for this study, each with three samples for each interval. Into each of twelve microcentrifuge tubes was added 10 mg hydroxyapatite (HA). One by one, […] was added to the tubes and then agitated with a vortex mixer at high speed for the allotted amount of time. Each tube was then centrifuged at 12.000 rpm for one minute. The liquid was then transferred to NMR tubes for analysis. Three blank NMR samples without the influence of HA were prepared for reference, as well as three control samples without pyrophosphate (i.e., menthol only) with HA. The spectra of the blank samples were compared to those of the experimental samples by observing the relative integration areas of the acetone peak vs. the signal from one methyl group of menthol's isopropyl component. No binding is observed without pyrophosphate.
An additional experiment was performed, changing the hydroxyapatite amount while keeping the vortex time fixed at 2 minutes for each sample, simulating the average time a person spends brushing his or her teeth. Menthol-PPi (80 mg) was dissolved in 16.14 g D2O. Two drops (25.7 mg) of acetone were again added as internal reference. One gram of the menthol-PPi solution was added to the HA test tubes just prior to vortex agitation, as before. Samples were again analyzed via ^1H NMR.

[2] = Menthol release in filtered saliva diluted 1:1 with PBS over 24 hours (GC/MS, FIG. 2); format: in vitro ADME, human; conditions: saliva/PBS 1:1, 37° C.
Protocol: FIG. 2 provides a graph of the menthol release after chloroform extraction over the course of 24 hours.
Into several 15-mL glass vials were placed 10 mg of menthol-PPi and 2 mL of fresh saliva. The saliva had been centrifuged to remove any free particles, then filtered through a 0.45 μm syringe filter to rid bacteria. It was then diluted 1:1 by volume with phosphate-buffered saline (PBS). Each sample was placed in a water bath incubator at 37° C., shaking at 40 rpm, for a specific amount of time over the course of 24 hours. One sample was withdrawn at each time interval, and vortexed for 10 seconds after direct addition of 2 mL of chloroform. The mixture was transferred to microcentrifuge tubes, after which each tube was centrifuged at 12,000 rpm for one minute to separate the chloroform phase from the water (saliva/PBS) phase. […] After GC/MS analysis of each sample, the total amount of menthol released was calculated using the integration areas of menthol and neomenthol, simplified into a ratio. […] The absolute amount, in μg, of menthol in each GC/MS vial was determined by multiplying the concentration by 1 mL, the total amount of solution in the vial. Then, the release amount was calculated by taking the previous value and multiplying it by a factor of 4, since the original sample was 2 mL. […]

| HA-Bound Conjugate (% ± σ %) ([1]; 10 mg hydroxyapatite, vortex time 1 min) [%] | HA-Bound Conjugate (% ± σ %) ([1]; 10 mg hydroxyapatite, vortex time 2 min) [%] | HA-Bound Conjugate (% ± σ %) ([1]; 10 mg hydroxyapatite, vortex time 5 min) [%] | HA-Bound Conjugate (% ± σ %) ([1]; 10 mg hydroxyapatite, vortex time 10 min) [%] | HA-Bound Conjugate (% ± σ %) ([1]; 20 mg hydroxyapatite, time fixed at two minutes) [%] | HA-Bound Conjugate (% ± σ %) ([1]; 30 mg hydroxyapatite, time fixed at two minutes) [%] | HA-Bound Conjugate (% ± σ %) ([1]; 40 mg hydroxyapatite, time fixed at two minutes) [%] | speed of binding to HA (time to maximum binding) [1] | speed of binding to HA (time to maximum binding) ([1]; listed as menthol-PPi) | release profile of menthol from the pyrophosphate [2] | binding to HA ([1]; control samples without pyrophosphate (menthol only) with HA) | Compound |
| --- | --- | --- | --- | --- | --- | --- | --- | --- | --- | --- | --- |
| 27.56 ± 4.44 | 25.69 ± 0.77 | 28.30 ± 2.70 | 28.25 ± 3.04 | 33.88 ± 6.32 | 45.04 ± 1.34 | 54.51 ± 3.65 | within one minute | very quickly | linear in nature |  | CC(C)[C@@H]1CC[C@@H](C)C[C@H]1OC(=O)COP(=O)([O-])OP(=O)([O-])[O-].[Na+].[Na+].[Na+] [Menthol-PPi, sodium 2-((1R,2S,5R)-2-isopropyl-5-methylcyclohexyloxy)-2-oxoethyl diphosphate] |
|  |  |  |  |  |  |  |  |  |  | No binding | CC1CCC(C(C)C)C(O)C1 (centres unmarked) [menthol, reference compound] |

— patent publication US20150290106A1, “Dentotropic Conjugates and Compositions and Methods of Use Thereof” (BOARD OF REGENTS OF THE UNIVERSITY OF NEBRASKA, priority 2012, published 2015)
